Assay results published in patent US12129305B2, “Targeting CLPTM1L for treatment and prevention of cancer” (The Medical College of Wisconsin, Inc., priority 2018, dated 2024).

Legend:
[1] = system: ID8-luc ovarian tumor cells; experiment: ID8-luc orthotopic syngeneic ovarian isograft model; assay type: in vivo, C57bl/6 mice; conditions: carboplatin alone, 10 mg/kg weekly for three weeks; over 35 days
Description: ID8-luc model: Five-week-old C57bl/6 mice (Jackson labs strain 664) were acclimated for one week and injected intraperitoneally with […] luciferase expressing ID8 syngeneic ovarian tumor cells suspended in 200 μL of PBS under Medical College of Wisconsin animal protocol AUA6339. One week after injection, antibodies and/or chemotherapeutic agents were administered intraperitoneally at the indicated doses. Chemotherapeutic doses or vehicle were administered one day before control or therapeutic antibody doses. Imaging and analysis of luciferin radiance was done up to twice weekly on an IVIS Spectrum-CT Imaging System equipped with thermoelectrically-cooled CCD camera. Mice were monitored twice weekly for weight and signs of morbidity. Mice were euthanized after 45 days or upon signs of morbidity. Animal studies were conducted using the standards for humane treatment of animals as described in the U.S. Public Health Service Policy on Humane Care and Use of Laboratory Animals.
With disseminated peritoneal disease being the most common presentation upon recurrence of ovarian carcinoma, we utilized an orthotopic isograft model of disseminated peritoneal ovarian cancer. Human anti-CLPTM1L binding to luciferase-expressing ID8 ovarian tumor cells (ID8-luc) was detected by flow cytometry (FIG. 31A). […] Tumor load was monitored by luciferin luminescence using whole body imaging. […]

SL3 parental xenografts = experiment: SL3 xenograft model, parental; assay type: in vivo, NU/J mice; conditions: weekly 2.5 mg/kg cisplatin and/or 5 mg/kg 102-5; 24 days post-inoculation
Description: (§1) Four-week old female NU/J mice (2019, Jackson Laboratories) were acclimated for 1 week before injection of 0.5×10^6 parental SL3 or 1×10^6 cisplatin-resistant SL3-cis cells subcutaneously into the flank in 200 μL PBS. Tumors were measured with calipers and volumes were calculated by ½ (W×W×L). After tumors had grown to an average of 100 mm^3, mice were separated into groups of 5 mice, each group with 100 mm^3 average tumor sizes. Mice were treated weekly with intraperitoneal doses of PBS control, cisplatin 2.5 mg/kg, and/or 102-5 5 mg/kg in 200 μL of PBS at room temperature beginning on day 6 post-inoculation. Cisplatin treatments were administered 24 hours following antibody treatment. Tumor volume was measured at least weekly. Animal health was monitored daily and animal weights measured at least weekly. All procedures were reviewed and approved by MCW IACUC committee #2 under AUA6339.
(§2) J/NU mice xenografted with SL3 parental or SL3-cis platinum resistant cells were treated weekly with control vehicles, 2.5 mg/kg cisplatin, and/or 5 mg/kg 102-5 anti-CLPTM1L. The effects of cisplatin and those of 102-5 on cisplatin treatment were investigated in this model rather than those of carboplatin since the SL3cis line was developed specifically as a cisplatin resistant line.

[2] = system: SL3-cis platinum resistant xenografts; experiment: SL3 xenograft model, cisplatin resistant; assay type: in vivo, NU/J mice; conditions: weekly 2.5 mg/kg cisplatin and/or 5 mg/kg 102-5; 24 days post-inoculation
Description: as §1, §2

[3] = system: Caspase-3 cleavage and Akt phosphorylation in SL3cis; experiment: Western blotting of SL3cis lysates for caspase cleavage and Akt phosphorylation; assay type: cell-based, human; conditions: SL3cis spheroids
Description: (A) A2780 apoptotic killing (casp 3/7 live imaging) after 36 hour mAb treatment (scFv clones 102-4a left, 102-5a right) and 24-hour carboplatin treatment. (B) Dose-response to up to 20 μM carboplatin in resistant A2780 cells treated with either control IgG1 or 102-5, relative to 0 carboplatin controls. (C) Kinetic killing assay (live imaging) in A2780 with human anti-CLP™1L scFv and/or 10 μM carboplatin treatment. *p<0.05, **p<0.005, ***p<0.0005. (D) Western blotting and densitometry for Akt and phospho-Akt (T308) in A2780 andA2780cis. […]
Cells were lysed with 100 μL of 1× NP40 lysis buffer containing proteinase inhibitors, sheared 10 times with a 28-gauge needle, spun at 16,000×g for 30 minutes, normalized by protein concentration as determined by the Bradford method, and the supernatant boiled for 5 minutes. Twenty microliters of normalized lysate were resolved by SDS-PAGE on 10% acrylamide gels at 150 volts for 1 hour, transferred by iBlot dry transfer (Life Technologies), blocked for 2 hours with TBST 10% milk, incubated with primary antibodies at 1:1000 in TBST 5% milk at 4C overnight with rocking, washed 3×5 minutes with TBST, incubated with secondary anti-rabbit-HRP (Santa Cruz Biotechnology) or goat anti-human-HRP (Invitrogen MH1715) at 1:10,000 in TBST 5% milk for 2 hours with rocking, washed 5×10 minutes with TBST, and signal analyzed using a Biorad Chemidoc XRS. […]

N.N.O=C([O-])C1(C(=O)[O-])CCC1.[Pt+2] [carboplatin, reference compound]
tumor load [1]: 1.23 fold

N.N.[Cl][Pt][Cl] [cisplatin, reference compound]
tumor growth and volumes (SL3 parental xenografts): significantly inhibited
tumor growth [2]: significantly inhibited tumor growth only in combination therapy with 102-5 anti-CLPTM1L
Akt phosphorylation at threonine 308 [3]: induced by cisplatin treatment
Caspase-3 cleavage ([3]; 16 days of growth): Caspase-3 cleavage was induced
